Assay results taken from US20200306213A1, “COMPOUNDS FOR USE IN THE TREATMENT OR PREVENTION OF LOWE SYNDROME OR DENT DISEASE AND METHODS THEREFOR” (Université de Montréal, priority 2017, published 2020).

Tests used:
[1] = tested on: Ocrl−/− mutant zebrafish embryos; test: Pronephric uptake of Alexa 488-10 kDa dextran in Ocrl−/− mutant zebrafish embryos; format: in vivo; conditions: OCRL1 mutant embryos at 72 hpf, 5 μM in the water, assessed 2 hours after tracer injection
Experimental: (§1) Finally, to test whether activation of PLC rescues phenotypes induced by loss of OCRL1 in an in vivo context, a previously established Ocrl−/− mutant zebrafish model for Lowe syndrome was used (Ramirez I. B. et al., 2012, Hum. Mol. Genet., 21, 1744-59, Oltrabella F., et al., 2015, PLoS Genetics, 11(4):e1005058). Wild type fish were of AB background.
(§2) Lysine-fixable 10 kDa dextran labelled with Alexa 488 (Molecular Probes) was prepared in PBS at 2 μg/μl final concentration. Zebrafish embryos at 72 hpf (hours post fertilisation) were treated for 60 minutes with DMSO control (0.005% DMSO), 5 μM m-3M3FBS or 5 μM o-3M3FBS by addition to the water. Embryos were then anaesthetised with 0.2 mg/ml MS222 (Sigma) in chorion water, and the tracer Alexa 488-10 kDa dextran (green) was injected into the common cardinal vein using a glass micropipette PLI-90 Pico-Injector (Harvard Apparatus). Embryos were returned to the respective drug treatments and incubated at 29° C. Pronephric accumulation was assessed 2 hours after injection on whole mount embryos using a fluorescent dissecting stereomicroscope (Leica MZ10F). Statistical analysis was performed using the Pearson's chi-squared test with Prism software (Prism Software Corporation).

[2] = tested on: renal epithelial cells from a Lowe syndrome patient; test: Abscission assay (time-lapse) in renal epithelial cells from a Lowe syndrome patient; format: cell-based, human; conditions: 25 μM, 60 hours time-lapse recording
Experimental: (§3) Further tests were carried out using human cellular models for the Lowe syndrome.
In this experiment, normal renal epithelial cells from a donor not mutated in OCRL1 and renal epithelial cells from a Lowe syndrome patient were grown in DMEM/F12 (Gibco BRL) supplemented with 10% fetal bovine serum, ITS supplemented, 4 pg/mL triiodothyronine, 36 ng/mL dexamethasone, 10 ng/ml EGF, 100 U/mL penicillin/streptomycin and 2 mM glutamine at 33° C.
Cell divisions were recorded by time-lapse microscopy using a Nikon Eclipse Ti Inverted Microscope. The curves represent the cumulative distribution of the abscission times in the indicated cell populations (see FIG. 3). […] Comparatively, abscission delay observed in Lowe patient cells was not corrected by treatment with o-3M3FBS.

[3] = tested on: wildtype zebrafish embryos; test: Pronephric uptake of Alexa 488-10 kDa dextran in wildtype zebrafish embryos; format: in vivo; conditions: wildtype embryos at 72 hpf, 5 μM in the water, assessed 2 hours after tracer injection
Experimental: as §1, §2

[4] = tested on: dOCRL dsRNA treated Drosophila S2 cells; test: Cytokinesis / multinucleation assay in dOCRL dsRNA treated Drosophila S2 cells; format: cell-based; conditions: dOCRL depleted S2 cells, 50 μM, 24 hours
Experimental: (§4) Drosophila S2 cells were grown in Schneider's Drosophila medium complemented with FBS, Penicillin and Streptomycin (Invitrogen). […] Cells were fixed and labelled for F-Actin (red) and DNA (blue). Images are shown in FIGS. 1(a) to 1(c) in which stars mark multinucleated cells. The histogram of FIG. 2 represents the percentage of multinucleated cells quantified following the indicated treatments. Each P-values were calculated against dOCRL dsRNA treated cells.

[5] = tested on: OCRL1-depleted HeLa cells; test: Abscission assay (time-lapse) in OCRL1-depleted HeLa cells; format: cell-based, human; conditions: OCRL1 siRNA-depleted HeLa cells, 25 μM, 60 hours time-lapse recording, compared to DMSO alone
Experimental: as §3
Human HeLa epithelial cells were grown in DMEM medium (Gibco BRL) supplemented with 10% fetal bovine serum, 100 U/ml penicillin/streptomycin and 2 mM glutamine at 37° C. HeLa cells were depleted in OCRL1 by transfecting control siRNAs (5′-CGUACGCGGAAUACUUCGA-3′) or OCRL1 RNAi (5′-GAAAGGAUCAGUGUCGAUA-3′) specific siRNAs for 72 h before imaging using HiPerFect reagents (Qiagen).
Cell divisions were recorded by time-lapse microscopy using a Nikon Eclipse Ti Inverted Microscope. The curves represent the cumulative distribution of the abscission times in the indicated cell populations (see FIG. 5).

[6] = tested on: control Drosophila S2 cells; test: Cytokinesis / multinucleation assay in control Drosophila S2 cells; format: cell-based; conditions: 50 μM, 24 hours
Experimental: as §4

[7] = tested on: normal renal epithelial cells from a donor not mutated in OCRL1; test: Abscission assay (time-lapse) in normal renal epithelial cells; format: cell-based, human; conditions: 25 μM, 60 hours time-lapse recording
Experimental: Further tests were carried out using human cellular models for the Lowe syndrome. […] In this experiment, normal renal epithelial cells from a donor not mutated in OCRL1 and renal epithelial cells from a Lowe syndrome patient were grown in DMEM/F12 (Gibco BRL) supplemented with 10% fetal bovine serum, ITS supplemented, 4 pg/mL triiodothyronine, 36 ng/mL dexamethasone, 10 ng/ml EGF, 100 U/mL penicillin/streptomycin and 2 mM glutamine at 33° C. […] Cell divisions were recorded by time-lapse microscopy using a Nikon Eclipse Ti Inverted Microscope. The curves represent the cumulative distribution of the abscission times in the indicated cell populations (see FIG. 3). […] Comparatively, abscission delay observed in Lowe patient cells was not corrected by treatment with o-3M3FBS.

| SMILES | rescue of endocytosis in the renal tubule (pronephric uptake of tracer) [1] | correction of abscission delay [2] | effect on renal (pronephric) uptake of tracer [3] | effect on cytokinesis failure / multi-nucleation rate [4] | correction of abscission delay [5] | effect on cytokinesis (multinucleated cells) [6] | effect on timing of abscission [7] |
| --- | --- | --- | --- | --- | --- | --- | --- |
| Cc1cc(C)c(S(=O)(=O)Nc2cccc(C(F)(F)F)c2)c(C)c1 [m-3M3FBS, 2,4,6-trimethyl-N-(m-3-trifluoromethylphenyl) benzene sulfonamide] | efficiently rescued endocytosis | fully corrected | no effect upon renal uptake | prevented cytokinesis failure | showed correction of the abscission delay | did not perturb cytokinesis | not affected |
| Cc1cc(C)c(S(=O)(=O)Nc2ccccc2C(F)(F)F)c(C)c1 [o-3M3FBS, reference compound] | no effect | not corrected | no effect | did not significantly modify the multi-nucleation rate | no significant effect on abscission | – | – |
